{
  "source": "ChEMBL document CHEMBL4393693",
  "about": "“Synthesis and Structure-Activity relationship of 1-(5-isoquinolinesulfonyl)piperazine analogues as inhibitors of Mycobacterium tuberculosis IMPDH” (Eur J Med Chem, 2019)",
  "data": [
    {"tested_on": "not listed separately", "experiment": "Selective ratio of inhibition of GuaB2 Tyr487Cys mutant in Mycobacterium tuberculosis H37Rv SRMV2.6 to inhibition of wild type GuaB2 in Mycobacterium tuberculosis H37Rv", "values": [
      {"compound": "O=C(Nc1ccc2c(c1)OCO2)N1CCN(S(=O)(=O)c2cccc3cnccc23)CC1", "Ratio": 4},
      {"compound": "Cc1ccccc1CNC(=O)N1CCN(S(=O)(=O)c2cccc3cnccc23)CC1", "Ratio": "16 to 32"},
      {"compound": "O=C(Nc1ccc2c(c1)OCO2)N1CCCN(S(=O)(=O)c2cccc3cnccc23)CC1", "Ratio": "8 to 16"},
      {"compound": "CC1CN(S(=O)(=O)c2cccc3cnccc23)CCN1C(=O)Nc1ccc2c(c1)OCO2", "note": "(configuration not stated)", "Ratio": "8 to 16"},
      {"compound": "CC1CCCCC1C(=O)N1CCN(S(=O)(=O)c2cccc3cnccc23)CC1", "note": "(configuration not stated)", "Ratio": "16 to 32"},
      {"compound": "O=C(C1CCCCC1)N1CCN(S(=O)(=O)c2cccc3cnccc23)CC1", "Ratio": 32}
    ]},
    {"tested_on": "Mycobacterium tuberculosis", "experiment": "Antimycobacterial activity against Mycobacterium tuberculosis H37Rv SRMV2.6 harboring GuaB2 Tyr487Cys mutant assessed as reduction in bacterial cell growth incubated for 3 to 4 weeks by alamar blue fluorescence based broth microdilution assay", "format": "functional", "units": {"MIC90": "µM"}, "values": [
      {"compound": "COc1cccc(CNC(=O)N2CCN(S(=O)(=O)c3cccc4cnccc34)CC2)c1", "MIC90": ">100"}
    ]}
  ]
}
